Data published in paper PMC12064818, “A general assay platform to study protein pharmacology using ligand-dependent structural dynamics” (Nature Communications, 2025).

Biological target: T1, FLuc-C-HiBiT (Photinus pyralis, UniProt P08659)
T1 construct: firefly luciferase with C-terminal HiBiT tag, E. coli expressed
Assay: biochemical
Conditions: enzyme activity, 10 uM ATP; read-out: IC50 or SDR50 (mM) / FLuc E

T1 sequence (P08659 whole entry, looked up): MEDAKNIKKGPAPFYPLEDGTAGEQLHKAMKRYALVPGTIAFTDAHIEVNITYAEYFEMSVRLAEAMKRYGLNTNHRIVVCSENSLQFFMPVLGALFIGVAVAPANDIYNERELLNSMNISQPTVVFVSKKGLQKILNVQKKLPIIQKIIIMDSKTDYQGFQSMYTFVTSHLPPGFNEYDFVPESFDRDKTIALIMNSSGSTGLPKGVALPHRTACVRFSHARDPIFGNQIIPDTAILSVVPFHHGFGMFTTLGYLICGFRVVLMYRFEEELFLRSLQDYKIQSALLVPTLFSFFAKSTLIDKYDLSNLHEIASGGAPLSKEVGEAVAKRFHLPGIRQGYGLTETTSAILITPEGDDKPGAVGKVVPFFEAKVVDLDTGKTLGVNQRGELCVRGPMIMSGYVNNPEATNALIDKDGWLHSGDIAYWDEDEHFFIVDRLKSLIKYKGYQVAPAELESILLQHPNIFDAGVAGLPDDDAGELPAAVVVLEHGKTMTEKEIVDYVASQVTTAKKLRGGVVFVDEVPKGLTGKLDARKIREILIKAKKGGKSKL

SMILES | IC50 [µM]
c1ccc(-c2cn3c(n2)CO[C@@H](CNCc2cccs2)C3)cc1 [NCGC00393328-01] | 20.2
CC(=O)NC1(C)CN(Cc2ccc(-c3ccccc3OCc3ccccc3)s2)C1 [NCGC00410438-01] | 22.7
COc1cc(C(=O)Nc2cc(C)c(O)c(-c3nc4ccccc4s3)c2)cc(OC)c1OC [NCGC00103336-02] | > 30
COc1cccc(-n2cnc3c(N/N=C/c4ccncc4)ncnc32)c1 [NCGC00242129-02] | 17.6
O=C(c1cc(-c2ccccc2O)on1)N1CCCCC1 [NCGC00105578-01] | 9.89
CCC(CC)C(=O)Nc1cccc(-c2nc3ccccc3s2)c1 [NCGC00119163-01] | 15.7
O=C([C@@H]1C[C@@H](O)[C@H](O)[C@@H]2NC(=S)N(c3ccc(OC(F)(F)F)cc3)[C@@H]21)N1CCCCC1 [NCGC00392138-01] | > 30
Cc1oc(C(O)c2ccccc2F)nc1C(=O)Nc1ccc(N2CCOCC2)cc1 (stereo not drawn) [NCGC00417991-01] | 16.1
COc1ccc(CC(=O)Nc2ccc(-c3nc4ccccc4s3)cc2Cl)cc1 [NCGC00137808-01] | > 30
Cc1ccccc1CN1CC[C@H](c2nc3ccccc3s2)C1 [NCGC00391192-01] | 18
CCOc1ccccc1C(=O)Nc1cccc(-c2nc3ccccc3s2)c1 [NCGC00119161-01] | 11.1
Cc1ccc2nc(-c3ccc(NC(=O)Cc4ccccc4)cc3)sc2c1 [NCGC00098885-01] | 9.89
CN(C(=O)OC(C)(C)C)c1ccc(-c2nc3ccccc3s2)cc1 [NCGC00167619-02] | 0.0989
O=C(NCc1cccc(Cl)c1)C1CCCN(c2nn3cc(-c4ccc(F)cc4)nc3s2)C1 (stereo not drawn) [NCGC00123714-01] | 8.81
O=C(Nc1ncc(-c2ccccc2)c2c1OCC2)c1ccccc1 [NCGC00412770-01] | 18
CCN(c1ncnc2c1cnn2-c1cccc(Cl)c1)C1CCCCC1 [NCGC00139112-01] | 5.56
COc1ccc(-c2ccc3ncc(Nc4cc(F)cc(N5CCOCC5)c4)n3n2)cc1OC [NCGC00412497-01] | 11.1
COc1ccccc1CN1CCc2nc(C(=O)Nc3ccccc3)oc2CC1 [NCGC00413298-01] | 16.1
CC(C)CN1CCNc2cc(-c3ccccc3)ncc2C1 [NCGC00411061-01] | 22.6
Cn1ccnc1CN1C(=O)CO[C@H](c2ccc(NC(=O)Nc3ccccc3)cc2)[C@H]1CO [NCGC00396650-01] | 14
COc1ccc(-c2nc(C)c(CCNC(=O)c3c(F)cccc3F)s2)cc1 [NCGC00135823-01] | > 30
O=C1c2cnc(-c3cccc(CO)c3)nc2OCCN1c1cccc(C(F)(F)F)c1 [NCGC00413455-01] | 20.2
Fc1cc(Nc2cnc3ccc(-c4ccccc4)nn23)cc(N2CCOCC2)c1 [NCGC00412489-01] | 16.1
Cc1ccc(C(=O)O)cc1Nc1nc2ccccc2n2nnnc12 [NCGC00106886-01] | 12.4
Clc1ccc(OCc2nc3ccccc3n2Cc2ccccc2)c(Cl)c1 [NCGC00098959-01] | 7

SMILES | IC50 [µM]
O=c1[nH]cnc2c1ncn2[C@H]1CC[C@@H](CO)O1 [NCGC00090691-03] | > 30
COc1ccc(-c2nc3ccccc3s2)cc1NC(=O)c1cc2ccccc2o1 [NCGC00102103-01] | > 30
O=C(O)c1ccc(-c2noc(-c3ccccc3Cl)n2)cc1 [NCGC00168099-01] | 1.11
COc1ccc(-c2noc([C@@H]3C[C@H](NCc4ccccn4)CN3C)n2)cc1 [NCGC00395774-01] | 20.2
Cc1cccc(CNC(=O)Cc2csc3ccccc23)c1 [NCGC00113581-01] | > 30
Clc1ccc(-c2cn3cc(Cc4ccccc4)sc3n2)cc1 [NCGC00102104-01] | 0.785
COc1ccc(-n2nc3ccc(NC(=O)c4c(OC)cccc4OC)cc3n2)cc1 [NCGC00103168-01] | > 30
COc1cccc2cc(C(=O)Nc3ccc(CC(=O)O)cc3)c(=O)oc12 [NCGC00102789-01] | 3.13
Cc1cccc(-c2nnc(SCCC(=O)O)o2)c1 [NCGC00103138-01] | 4.95
COc1ccccc1OCc1nc2ccccc2n1Cc1ccccc1 [NCGC00141136-01] | 14
Fc1ccc(-n2ncc3c(N4CCCCCC4)ncnc32)cc1 [NCGC00138953-01] | 1.24
Cc1ccc2nc(-c3ccc(NC(=O)COc4ccccc4)cc3)sc2c1 [NCGC00098210-01] | 6.24
COc1ccc(-c2nc3ccc(N[S+](C)(=O)[O-])cc3o2)cc1 [NCGC00119094-01] | 5.56
COc1ccc(CN2CCOC[C@H](OCC(=O)N(C)C)C2)cc1 [NCGC00393502-01] | > 30
COCCN1CCOc2nc(-c3cc(F)cc(OC)c3)ncc2C1=O [NCGC00413569-01] | 11.4
COCCNC(=O)[C@@H](C)C1CC[C@@]2(C)Cc3sc(CSc4ccccc4)nc3[C@@H](C)[C@@H]2[C@H]1O (stereo partly drawn) [NCGC00391430-01] | 11.1
CCCCN(C)[S+](=O)([O-])c1ccc(C(=O)Nc2ccc(-c3nc4ccc(C)cc4s3)cc2)cc1 [NCGC00134689-02] | > 30
CC(C)c1ccc(NC(=O)O[C@@H]2CO[C@H]3[C@@H]2OC[C@@H]3N[S+](=O)([O-])c2cccs2)cc1 [NCGC00399549-01] | 8.81
COc1cccc(-c2ncc3c(n2)OCCN(c2ccccc2)C3=O)c1 [NCGC00413522-01] | 1.8
CN1CCN(c2ccc(-c3cc4c(ccn4C)c(C(=O)NCC4CCC(=O)N4)n3)cc2)CC1 (stereo not drawn) [NCGC00411731-01] | 15.7
Oc1ccc(-c2nc3ccccn3c2Nc2ccc3c(c2)OCCO3)cc1 [NCGC00106600-01] | 17.6
CC(CCc1ccc(O)cc1)N1CCOc2c(O)cc(-c3nc4ccccc4s3)cc2C1 (stereo not drawn) [NCGC00240078-01] | > 30
Clc1ccccc1Cc1cn2cc(-c3ccccc3)nc2s1 [NCGC00102100-01] | 0.442
CC(C)c1ccc(C(=O)Nc2ccc(-c3nc4ccccc4s3)c(Cl)c2)cc1 [NCGC00101984-01] | > 30

Results, then the compound that gave them:

IC50 [µM] | SMILES
1.57 | COc1cccc(-c2noc(Nc3ccc4c(c3)OCCO4)n2)c1 [NCGC00422372-01]
9.89 | CN(C)c1cccc(C(=O)Nc2ccc3c(N4CCOCC4)ncnc3c2)c1 [NCGC00425557-01]
2.48 | O=C(Nc1cnc(-c2ccccc2)nc1)C1CCCC1 [NCGC00432867-01]
> 30 | CCn1cc(-c2ccc(F)cc2)cc1C(=O)O [NCGC00432651-01]
5.56 | c1c(-c2nc(C3CCOC3)no2)sc2c1CCCC2 (stereo not drawn) [NCGC00443783-01]
3.51 | CCOc1ccc(-c2cc3c(=O)n(CCNC(=O)c4ccncc4)ccn3n2)cc1 [NCGC00456950-01]
> 30 | CCC[C@H](C)Oc1nc(N)c2[nH]c(=O)n(CCCCCN3CCCCC3)c2n1 [NCGC00856659-01]
8.81 | COc1cccc(CC(=O)NCCn2ccn3nc(-c4ccc(C)cc4C)cc3c2=O)c1 [NCGC00456960-01]
11.1 | O=C1NCCCCCCN(Cc2ccncc2)[C@@H]2CN(C(=O)Nc3ccc4c(c3)OCCO4)CC[C@H]12 [NCGC00467232-01]
9.89 | Cc1ccc(-c2cc3c(=O)n(CCNC(=O)c4ccoc4)ccn3n2)cc1C [NCGC00457019-01]
9.89 | COc1ccc(-c2cc(N3CCCC(NC(=O)c4cccs4)C3)[nH]n2)cc1 (stereo not drawn) [NCGC00437586-01]
8.81 | Cc1ccc(NC(=O)c2ccc3c(c2)N(C)C2CCCN2C3=O)cc1F (stereo not drawn) [NCGC00452116-01]
> 30 | CCOc1cccc(-c2nc(C3CCOC3)no2)c1 (stereo not drawn) [NCGC00445015-01]
3.94 | Cc1ccc(NC(=O)Nc2ccc(C)n(CC(=O)N3CCC(C)CC3)c2=O)cc1 [NCGC00430800-01]
3.51 | CC(C)c1ccc(NC(=O)c2ccc(CN3C(=O)NC4(CCOCC4)C3=O)cc2)cc1 [NCGC00454608-01]
0.989 | C[C@H](C(=O)NCCN1CCOCC1)C1CC[C@@]2(C)Cc3sc(-c4ccccc4)nc3[C@@H](C)[C@@H]2[C@H]1O (stereo partly drawn) [NCGC00421022-01]
2.79 | CCn1cnnc1CC1CCN(C(=O)c2cc(-c3ccc(C)c(C)c3)nc3ccccc23)CC1 [NCGC00456253-01]
> 30 | Oc1ccc(-c2nc(C3CC3)nc3c2CCN(Cc2cccc(F)c2)CC3)cc1 [NCGC00480349-01]

IC50 [µM] | SMILES
7.85 | COc1ccc(NC(=O)Nc2ccc(C)n(CC(=O)N3CCCC(C)C3)c2=O)cc1 (stereo not drawn) [NCGC00430838-01]
5.56 | Cc1ccc(-c2cc3c(=O)n(CCNC(=O)Cc4cccc(F)c4)ccn3n2)c(C)c1 [NCGC00456965-01]
11.1 | O=C(c1ccccn1)N1CCC(Oc2ccc(-c3noc(-c4ccccc4)n3)cc2)C1 (stereo not drawn) [NCGC00441001-01]
> 30 | c1ccc(CCCNc2nccc(-c3ccccn3)n2)nc1 [NCGC00443451-01]
> 30 | Cn1cc(-c2ccc(Cl)cc2)cc1C(=O)O [NCGC00432667-01]
5.56 | Cc1c(-c2ccccc2F)[nH]c2ccc(CNC(=O)C3CCCN(C(N)=O)C3)cc12 (stereo not drawn) [NCGC00429038-01]
1.97 | Cc1ccc(-c2cc(C(=O)N3CCC(Cc4nncn4CC4CC4)CC3)c3ccccc3n2)cc1C [NCGC00456240-01]
15.7 | CCc1ccccc1NC(=O)c1cc2c(=O)[nH]c(C)cn2n1 [NCGC00453924-01]
4.95 | COc1ccc(-c2cc(N3CCCC(NC(=O)c4ccc5[nH]ccc5c4)C3)[nH]n2)cc1 (stereo not drawn) [NCGC00437714-01]
1.76 | C[C@@H]1CN(c2nc(-c3ccccc3)no2)CC[C@@]1(O)C1CCC1 [NCGC00439928-01]
> 30 | NC(=O)CC1CCN(c2ncnc3c2cnn3-c2ccccc2)CC1 [NCGC00610672-01]
1.24 | CCC(C)NC(=O)Cn1c(C)ccc(NC(=O)Nc2ccc(C)cc2)c1=O (stereo not drawn) [NCGC00430780-01]
7.85 | CCc1ccc(C(=O)Nc2ccc3c(N4CCOCC4)ncnc3c2)cc1 [NCGC00425539-01]
11.1 | CN(C)c1ccc(NC(=O)c2ccc3c(c2)N(C)C2CCCCN2C3=O)cc1 (stereo not drawn) [NCGC00452413-01]
8.81 | CN1CCN(c2ccc(-c3cccc(NC(=O)C4CCCCC4)c3)nn2)CC1 [NCGC00427550-01]
> 30 | CCCCC(=O)Nc1cc(-c2nc3ccccc3s2)ccc1C [NCGC00596082-01]
9.89 | Cc1noc(-c2cccn3c(CNC(=O)c4ccc(C(C)(C)C)cc4)nnc23)n1 [NCGC00457512-01]
